Experiments:
MCF-7 = assay: Cell cycle FACS analysis, MCF-7; assay type: cell-based, human
Procedure: (§1) Whole cell extracts were prepared and immunoblotted as previously described Dorrello et al., “S6K1- and betaTRCP-mediated Degradation of PDCD4 Promotes Protein Translation and Cell Growth,” Science 314:467-471 (2006), which is hereby incorporated by reference in its entirety. For knockdown of Skp2 or p27, shRNAs were induced with 2 ng/ml doxycycline for 48 hours, with the last 16 hours co-treated with 0.1% Vehicle or 10 μM inhibitors as indicated. For cycloheximide chase, cells were pretreated 16 h with 0.1% Vehicle or 10 μM inhibitors, followed by 20 ng/ml cycloheximide (Sigma) and whole cell extracts collected for each time point. 20 ng/ml cycloheximide (Sigma) was added to each plate and whole cell extract was collected for each time point. Scanning densitometry was performed on immunoblots using Image J software. […] 1×10^6 cells were fixed in 70% ethanol for 2 h, treated with 200 μg/ml RNase A (Invitrogen) for 30 minutes, and stained with 20 μg/ml Propidium Iodine (Sigma). All samples were assayed in triplicates. Signal was detected using the Becton Dickson LSRII flow cytometer and cell cycle profiles were analyzed with FloJo.

SCF-βTrCP = assay: β-TrCP PDCD4 in vitro ubiquitylation counter-screen; assay type: biochemical; settings: 50 μM inhibitor
Procedure: (§2) In vitro reconstituted assays were performed as previously described (Dorrello et al., “S6K1- and betaTRCP-mediated Degradation of PDCD4 Promotes Protein Translation and Cell Growth,” Science 314:467-471 (2006), which is hereby incorporated by reference in their entirety) with the exceptions of the use of (1) unlabeled proteins (wild-type and mutant Skp2 and Cks1, p27, Flag-βTrCP, and HA-PDCD4) generated by in vitro transcription-translation (TNT T7 Coupled Reticulocyte Lysate System, Promega); (2) chain elongation with non-methylated ubiquitin; and (3) immunoblotting to detect poly-ubiquitylation. The following reagents were obtained from Boston Biochem: UBE1, His-UbcH3, His-UbcH5c, Ubiquitin, and Ubiquitin Aldehyde. Additional reagents include CDK2/CyclinE1 (Sigma-Aldrich), S6K (Invitrogen), Okadaic acid (Sigma), and DMSO (Sigma-Aldrich). For ubiquitin charging, UBE1 (100 nM) and His-UbcH3 (10 ng/μl) were incubated with ubiquitin (2.5 μg/μl), ATP (2 mM), and 10 μM […] of inhibitors or Vehicle control for 60 min at 30° C. Reactions were stopped in nondenaturing 2× Sample Buffer, with the addition of 10% Beta-mercaptoethanol as indicated, and analyzed by Western blotting.

p27 in ECC-1 cells = assay: p27 immunoblot in ECC-1 cells (whole cell lysates, nuclear and cytoplasmic fractions); settings: ECC-1; for p27 increase over control at optimal concentration: 10 μM (FIG. 11B); for Nuclear p27 increase over the control in presence of E2: 10 μM compound plus 1 nM E2; for Nuclear p27 increase over the control in presence of E2 / Decrease of cytoplasmic p27 levels: 18 h (FIG. 14C); for p27 protein levels over Vehicle control: 10 μM for 18 h, whole cell lysates (FIG. 11A); for Decrease of cytoplasmic p27 levels: 10 μM; for Increase of nuclear p27 compared to Vehicle control: nuclear fraction (FIG. 11C)
Procedure: The endometrial carcinoma cell line (derived from a well-differentiated endometrioid Type I ECA) ECC-1 cells (ATCC, Manassas, Va.) were plated at a density of 3×10^5/well/6-well plate and grown in DMEM:F12 supplemented with 10% FBS (BioWest, Ocala, Fla.). The cell line was passaged in the laboratory for fewer than 6 months after receipt. […] ECAs were plated at a density of 2.2×10^6 cells/6-well Primaria® plates (BD Biosciences, San Jose, Calif.) in McCoys 5A media without phenol red containing 10% charcoal-stripped FBS, 2 mM L-Glutamine (Invitrogen) and antimycotic antibiotic solution (Mediatech, Hendon, Va.).
For subcellular fractionation, following treatments, cells were separated into nuclear and cytoplasmic fractions using the NE-PER kit (Thermo Scientific), and 10 μg cytoplasmic and nuclear protein fractions were loaded onto SDS-PAGE for immunoblotting. […] The membranes were incubated with peroxidase-conjugated goat anti-rabbit or goat anti-mouse secondary antibodies in TBST (1:2000; Thermo Scientific). […] Protein bands were resolved using the SuperSignal West Dura kit (Thermo Scientific), visualized by exposure to X-ray film (HyBlot; Denville Scientific, Denville, N.J.), and following densitometric scanning (Kodak Logic-100), the protein bands were quantified by normalizing to β-actin and compared to the untreated control, and the values represented by the graphs of relative protein levels compared to actin in each well and shown as % of Vehicle control.

SCF-Skp2 (Skp2-Cks1) = molecular target: T1, SCF-Skp2 (Skp2-Cks1) (Homo sapiens, UniProt P61024+Q13309); assay: In vitro ubiquitylation assay, Skp2-mediated p27 ubiquitylation (Wild-Type Cks1); assay type: biochemical; settings: 50 μM compound, immunoblot for p27-(Ub)n
T1 construct: made in house; host or cells: cell-free: rabbit reticulocyte lysate (TNT T7 Coupled Reticulocyte Lysate System, Promega) from pcDNA3.1 plasmids
Procedure: The 96 hits were tested in an in vitro ubiquitylation assay driven by in vitro transcribed/translated Skp2, Cks1, and p27 (Sitry et al., “Three Different Binding Sites of Cks1 are Required for p27-ubiquitin Ligation,” J. Biol. Chem. 277:42233-42240 (2002)). Assay sensitivity was established for various criteria (FIG. 1B): Enhanced ubiquitylation with Cks1 (lane 2), kinase activity requirement (lane 3), and responsiveness to known inhibitors of Cullin (lane 5) or Cdk2 (lane 6) activity (Meijer et al., “Biochemical and Cellular Effects of Roscovitine, a Potent and Selective Inhibitor of the Cyclin-dependent Kinases cdc2, cdk2 and cdk5,” Eur. J. Biochem. 243:527-536 (1997); Soucy et al., “An Inhibitor of NEDD8-activating Enzyme as a New Approach to Treat Cancer,” Nature 458:732-736 (2009), which are hereby incorporated by reference in their entirety). Compounds showing at least 50% inhibition of Skp2-mediated p27 ubiquitylation (FIG. 1C) were counter-screened for inactivity against two anti-target E3 ligases: MDM2 and SCF-βTrCP (FIGS. 6A-B). Compounds C1 and C2 were identified from the primary VLS and C16 and C20 were identified from a second VLS (FIG. 2).
as §2

T47D = assay: Cell cycle FACS analysis, T47D; assay type: cell-based, human
Procedure: as §1

Skp2-p27 interaction = molecular target: T2, Skp2-p27 interaction (Homo sapiens, UniProt P61024+Q13309); assay: p27 binding to HA-Skp2 (HA-immunoprecipitation); settings: for p27 binding to Skp2: 10 μM, HA-Skp2 and Cks1 pretreated before p27-pT187, without ubiquitylation
T2 construct: made in house; host or cells: cell-free: rabbit reticulocyte lysate (TNT T7 Coupled Reticulocyte Lysate System, Promega) from pcDNA3.1 plasmids
Procedure: In vitro ubiquitylation assays were incubated with anti-HA affinity matrix (Roche) in IP buffer (50 mM Tris pH 7.6, 150 mM NaCl, 0.1% NP40, and Roche Complete EDTA-free protease tablet) for 16 h at 4° C. Beads were washed 3× with IP buffer and eluted with 2×SDS Sample Buffer (Boston Bioproducts) and 10% Beta-mercaptoethanol. For binding without ubiquitylation, HA-Skp2 IVT (10 μl) and Cks1 IVT (10 μl) were preincubated with anti-HA affinity matrix in IP buffer for 2 hours, with the addition of p27 kinase reaction (10 μl) for another 16 h incubation at 4° C. All reactions were analyzed after SDS/PAGE by western blotting. Where indicated, Skp2 and Cks1 were pretreated with 10 μM inhibitors for 30 minutes. Kinase reactions were performed with p27 IVT (10 μl) and 0.5 μg/ul CyclinE/CDK2 in kinase buffer (50 mM Tris HCL pH 7.5, 10 mM MgCl2, 2 mM ATP, 2.5 μM Okadaic Acid, and 0.6 mM DTT) at 30° C. for 1 h.

ECC-1 cells = assay: ECC-1 cytotoxicity (trypan blue exclusion); assay type: cell-based; settings: 10 μM, 48 h

T2 sequence (Q13309 whole entry): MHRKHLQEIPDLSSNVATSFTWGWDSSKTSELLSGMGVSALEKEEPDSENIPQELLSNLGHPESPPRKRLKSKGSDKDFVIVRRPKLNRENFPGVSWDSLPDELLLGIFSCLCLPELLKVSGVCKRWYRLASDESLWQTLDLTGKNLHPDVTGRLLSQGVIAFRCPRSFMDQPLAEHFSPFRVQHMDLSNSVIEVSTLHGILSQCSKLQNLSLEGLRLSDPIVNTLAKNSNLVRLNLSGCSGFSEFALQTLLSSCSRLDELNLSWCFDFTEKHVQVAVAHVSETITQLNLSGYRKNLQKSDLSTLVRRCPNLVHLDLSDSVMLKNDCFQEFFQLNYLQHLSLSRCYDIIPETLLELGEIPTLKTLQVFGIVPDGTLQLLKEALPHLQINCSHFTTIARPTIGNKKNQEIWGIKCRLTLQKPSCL
T2 sequence (P61024 whole entry): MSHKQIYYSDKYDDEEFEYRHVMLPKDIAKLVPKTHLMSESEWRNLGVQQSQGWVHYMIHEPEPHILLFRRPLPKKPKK
T2 sequence (P63208 whole entry partner): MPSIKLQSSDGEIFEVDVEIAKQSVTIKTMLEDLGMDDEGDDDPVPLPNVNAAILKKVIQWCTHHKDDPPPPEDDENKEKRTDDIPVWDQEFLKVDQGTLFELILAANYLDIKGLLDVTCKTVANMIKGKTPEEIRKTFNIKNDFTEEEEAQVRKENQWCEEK
T2 sequence (Q13616 whole entry partner): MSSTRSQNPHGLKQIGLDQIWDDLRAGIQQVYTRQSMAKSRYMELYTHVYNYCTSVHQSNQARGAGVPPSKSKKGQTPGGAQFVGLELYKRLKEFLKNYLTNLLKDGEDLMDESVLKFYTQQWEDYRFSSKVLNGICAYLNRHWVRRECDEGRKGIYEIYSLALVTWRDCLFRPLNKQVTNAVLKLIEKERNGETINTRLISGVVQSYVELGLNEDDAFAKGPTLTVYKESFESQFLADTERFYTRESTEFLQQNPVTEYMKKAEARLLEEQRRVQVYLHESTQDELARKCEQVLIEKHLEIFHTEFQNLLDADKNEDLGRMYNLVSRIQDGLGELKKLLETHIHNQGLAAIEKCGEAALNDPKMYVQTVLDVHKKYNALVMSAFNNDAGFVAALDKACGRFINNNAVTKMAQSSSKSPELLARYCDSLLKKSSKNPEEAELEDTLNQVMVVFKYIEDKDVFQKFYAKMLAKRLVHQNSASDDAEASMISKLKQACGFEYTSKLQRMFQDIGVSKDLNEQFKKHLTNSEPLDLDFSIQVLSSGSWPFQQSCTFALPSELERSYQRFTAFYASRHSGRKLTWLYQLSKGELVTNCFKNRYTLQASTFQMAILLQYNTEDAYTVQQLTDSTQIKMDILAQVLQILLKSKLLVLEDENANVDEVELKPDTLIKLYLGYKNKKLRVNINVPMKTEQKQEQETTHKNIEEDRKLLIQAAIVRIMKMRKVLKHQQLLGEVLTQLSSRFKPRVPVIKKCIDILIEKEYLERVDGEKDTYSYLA
T2 sequence (P62877 whole entry partner): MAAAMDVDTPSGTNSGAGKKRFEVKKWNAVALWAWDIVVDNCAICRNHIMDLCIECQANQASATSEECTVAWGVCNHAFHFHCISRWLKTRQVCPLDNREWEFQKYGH
T1 sequence (Q13309 whole entry): as the sequence (Q13309 whole entry) above
T1 sequence (P61024 whole entry): as the sequence (P61024 whole entry) above
T1 sequence (P63208 whole entry partner): as the sequence (P63208 whole entry partner) above
T1 sequence (Q13616 whole entry partner): as the sequence (Q13616 whole entry partner) above
T1 sequence (P62877 whole entry partner): as the sequence (P62877 whole entry partner) above

| Structure (SMILES) | Cellular phenotype (MCF-7) | β-TrCP activity (PDCD4 poly-ubiquitylation) (SCF-βTrCP) | Levels of Skp2 (p27 in ECC-1 cells) | p27 increase over control at optimal concentration (p27 in ECC-1 cells) | Nuclear p27 increase over the control in presence of E2 (p27 in ECC-1 cells) | p27 protein levels over Vehicle control (p27 in ECC-1 cells) | Decrease of cytoplasmic p27 levels (p27 in ECC-1 cells) | Increase of nuclear p27 compared to Vehicle control (p27 in ECC-1 cells; 18 h) | Inhibition of Skp2-mediated p27 ubiquitylation (SCF-Skp2 (Skp2-Cks1)) | Cellular phenotype (T47D) | p27 binding to Skp2 (Skp2-p27 interaction) | Cytotoxicity (ECC-1 cells) | also measured |
| --- | --- | --- | --- | --- | --- | --- | --- | --- | --- | --- | --- | --- | --- |
| O=C(NN=Cc1cc(Br)cc(Br)c1O)C(=Cc1ccccc1O)NC(=O)c1ccccc1 [Compound C20] | no significant cellular phenotype | not blocked | do not effect the levels of Skp2 | 2.2 | ~2 fold | increase p27 protein levels | approximately 33% | 2.2 fold | strongly inhibited | no significant cellular phenotype | reduce p27 binding to Skp2 | not cytotoxic |  |
| COC(=O)C1=C(C)N(c2ccc(Br)cc2)C(=O)C1=Cc1ccccc1O [Compound C2] | no significant cellular phenotype | not blocked | do not effect the levels of Skp2 | 2.3 | ~2 fold | increase p27 protein levels | approximately 33% | 1.8 fold | strongly inhibited | no significant cellular phenotype | reduce p27 binding to Skp2 | not cytotoxic | Concentration inducing p27 to the same level as the proteasome inhibitor (p27 in ECC-1 cells; 24 hours, compared to 1 μM Lactacystin): ≤ 0.1 µM; Cytoplasm p27, time course (p27 in ECC-1 cells; by 18 h (FIG. 15A)): half; Nuclear p27, time course (p27 in ECC-1 cells; by 18 h (FIG. 15A)): doubled |
| O=C(O)COc1ccc(Br)cc1C=C1SC(=S)N(Cc2cccnc2)C1=O [Compound C1] |  | not blocked |  |  |  |  |  |  | active |  | reduce p27 binding to Skp2 |  | Increase in G2-M phase (MCF-7; 5 μM C1 for 16 hours): 43%; Reduction in G1 phase (MCF-7; 5 μM C1 for 16 hours): 35%; G1 phase (T47D; 5 μM for 16 hours): an increase in G1 phase; S phase (T47D; 5 μM for 16 hours): a decrease in S phase; Amount of p27 interacting with Skp2 (Skp2-p27 interaction; 50 μM, HA-immunoprecipitates of ubiquitylation assays): reduced the amount of p27 |
| O=C(O)COc1ccc(C=C2SC(=O)N(CC(=O)c3ccc(Cl)cc3)C2=O)cc1 [Compound C16] | no significant cellular phenotype | not blocked |  |  |  | increase p27 protein levels |  | 2.2 fold | active | no significant cellular phenotype | reduce p27 binding to Skp2 |  | Increase of cytoplasm p27 (p27 in ECC-1 cells; 18 h, cytoplasmic fraction (FIG. 11C)): 2.7 fold; Cell death (ECC-1 cells): 77% |

Source: patent US9261497B2, “Method of treating cancer with modulators of SCFSkp2” (New York University, priority 2012, dated 2016)
